# US10300106B2, “Autophagy-inducing peptide analogs” (Board of Regents, The University of Texas System, priority 2013, dated 2019)
# Non-standard residues stand in square brackets, D forms with d. No end group written: not given here.
# Test system: autophagy (p62 degradation, LC3-I to LC3-II conversion)
# Assay: Biochemical autophagy assays: western blot detection of p62 and of the conversion of LC3-I into LC3-II
# Assay type: cell-based
# Details: 10 micromolar; western blot; compared to 10 micromolar Tat-Beclin 1 compound
# Protocol: Autophagy can be detected directly, indirectly or inferentially by conventional assays, such as disclosed and/or exemplified herein, including biochemically (by assessing the generation of Atg8-PE or LC3-II or the degradation of p62) or microscopically (e.g. by observing the localization pattern of fluorescently tagged Atg8 or LC3).
# To further assess the components of the beclin 1 peptide required for autophagy-inducing activity, a series of shorter peptides were developed. Activity was measured by biochemical autophagy assays including western blot detection of p62 (a protein degraded by autophagy) and western blot detection of the conversion of LC3-I into LC3-II (the lipidated autophagosome-associated form of LC3).
Sequence,LC3-II conversion,p62 degradation
VFNATFEIWHD [Wild-type (wt)],increased LC3-II conversion,increased p62 degradation

# Same assay, conditions: relative to the wild-type (wt) peptide; all peptides carry the 11 amino acid HIV TAT PTD and diglycine linker
row,Sequence,Activity (autophagy inducing activity)
1,"CFNATFEIWHD ({Tat PTD}-GGCFNATFEIWHD) [Mutant 1, HIV TAT PTD-diglycine fusion peptide]",~wt
2,"DHWIHFTANWV ([dD][dH][dW][dI][dH][dF][dT][dA][dN][dW][dV]; also: fused to TAT PTD via diglycine linker) [Mutant 30, D-retro-inverso counterpart of Mutant 17, with TAT PTD and diglycine linker]",>>wt
3,"FNATFEIWH (HIV TAT PTD and diglycine linker fused) [Mutant 26, HIV TAT PTD-diglycine fusion peptide]",>>wt
4,"FNATFEIWHD (HIV TAT PTD and diglycine linker fused) [Mutant 21, HIV TAT PTD-diglycine fusion peptide]",>wt
5,"VFDATFEIWHD ({Tat PTD}-GGVFDATFEIWHD) [Mutant 3, HIV TAT PTD-diglycine fusion peptide]",<<wt
6,"VFNACFEIWHD (HIV TAT PTD and diglycine linker fused) [Mutant 5, HIV TAT PTD-diglycine fusion peptide]",<wt
7,"VFNATFDIWHD (HIV TAT PTD and diglycine linker fused) [Mutant 7, HIV TAT PTD-diglycine fusion peptide]",~wt
8,"VFNATFEFWHD (HIV TAT PTD and diglycine linker fused) [Mutant 18, HIV TAT PTD-diglycine fusion peptide]",~wt
9,"VFNATFEIFHD (HIV TAT PTD and diglycine linker fused) [Mutant 9, HIV TAT PTD-diglycine fusion peptide]",~wt
10,"VFNATFEIWH (HIV TAT PTD and diglycine linker fused) [Mutant 25, HIV TAT PTD-diglycine fusion peptide]",>wt
11,VFNATFEIWHD [Wild-type (wt)],wt
12,"VFNATFEIWHE (HIV TAT PTD-diglycine fusion) [Mutant 11, HIV TAT PTD-diglycine fusion peptide]",~wt
13,"VFNATFEIWYD (HIV TAT PTD-diglycine fusion) [Mutant 10, HIV TAT PTD-diglycine fusion peptide]",~wt
14,"VFNATFELWHD (HIV TAT PTD and diglycine linker fused) [Mutant 8, HIV TAT PTD-diglycine fusion peptide]",>wt
15,"VFNATFEMWHD (HIV TAT PTD-diglycine fusion) [Mutant 16, HIV TAT PTD-diglycine fusion peptide]",~wt
16,"VFNATFERWHD (HIV TAT PTD and diglycine linker fused) [Mutant 20, HIV TAT PTD-diglycine fusion peptide]",~wt
17,"VFNATFEVWHD (HIV TAT PTD-diglycine fusion) [Mutant 14, HIV TAT PTD-diglycine fusion peptide]",~wt
18,"VFNATFEYWHD (HIV TAT PTD and diglycine linker fused) [Mutant 19, HIV TAT PTD-diglycine fusion peptide]",~wt
19,"VFNATWEIWHD (HIV TAT PTD and diglycine linker fused) [Mutant 6, HIV TAT PTD-diglycine fusion peptide]",<wt
20,"VFNSTFEIWHD ({Tat PTD}-GGVFNSTFEIWHD) [Mutant 4, HIV TAT PTD-diglycine fusion peptide]",<<wt
21,"VLNATFEIWHD (HIV TAT PTD-diglycine fusion) [Mutant 15, HIV TAT PTD-diglycine fusion peptide]",~wt
22,"VWNATFEIWHD ({Tat PTD}-GGVWNATFEIWHD) [Mutant 2, HIV TAT PTD-diglycine fusion peptide]",>wt
23,"VWNATFELWHD (HIV TAT PTD-diglycine fusion) [Mutant 12, HIV TAT PTD-diglycine fusion peptide]",~wt
24,"VWNATFHIWH (HIV TAT PTD and diglycine linker fused) [Mutant 28, HIV TAT PTD-diglycine fusion peptide]",>>wt
25,"VWNATFHIWHD (HIV TAT PTD-diglycine fusion) [Mutant 17, HIV TAT PTD-diglycine fusion peptide]",>>wt
26,"VYNATFEIWHD (HIV TAT PTD-diglycine fusion) [Mutant 13, HIV TAT PTD-diglycine fusion peptide]",<wt
27,"WNATFHIWH (HIV TAT PTD and diglycine linker fused) [Mutant 27, HIV TAT PTD-diglycine fusion peptide]",>>wt
28,"WNATFHIWHD (HIV TAT PTD and diglycine linker fused) [Mutant 29, HIV TAT PTD-diglycine fusion peptide]",>>wt
